Where two headings read alike, the source gives them in different places.
What was measured:
KRAS G12V = KRAS G12V (Homo sapiens, UniProt P01116+P62937, G12V); assay: Ras-Raf disruption/FRET/MOA assay, KRAS G12V; assay type: biochemical
Text: (§1) Disruption of B-Raf Ras-Binding Domain (BRAF^RBD) Interaction with K-Ras by Compounds of the Invention (Also Called a FRET Assay or an MOA Assay)
(§2) Note—The following protocol describes a procedure for monitoring disruption of K-Ras G12C (GMP-PNP) binding to BRAF^RBD by a compound of the invention. This protocol may also be executed substituting other Ras proteins or nucleotides, such as K-Ras G12D and K-Ras G13D.
(§3) The purpose of this biochemical assay was to measure the ability of test compounds to facilitate ternary complex formation between a nucleotide-loaded K-Ras isoform and Cyclophilin A; the resulting ternary complex disrupts binding to a BRAF^RBD construct, inhibiting K-Ras signaling through a RAF effector.
(§4) In assay buffer containing 25 mM HEPES pH 7.3, 0.002% Tween20, 0.1% BSA, 100 mM NaCl and 5 mM MgCl2, tagless Cyclophilin A, His6-K-Ras-GMPPNP, and GST-BRAF^RBD were combined in a 384-well assay plate at final concentrations of 25 μM, 12.5 nM, and 50 nM, respectively. Compound was present in plate wells as a 10-point 3-fold dilution series starting at a final concentration of 30 μM. After incubation at 25° C. for 3 hours, a mixture of anti-His Eu-W1024 and anti-GST allophycocyanin was then added to assay sample wells at final concentrations of 10 nM and 50 nM, respectively, and the reaction incubated for an additional 1.5 hours. […] Compounds that facilitate disruption of a K-Ras:RAF complex were identified as those eliciting a decrease in the TR-FRET ratio relative to DMSO control wells.

KRAS WT = KRAS WT (Homo sapiens, UniProt P01116+P62937); assay: Ras-Raf disruption/FRET/MOA assay, KRAS WT; assay type: biochemical
Chain of KRAS WT (P01116 1-169 isoform P01116-2 limits assumed): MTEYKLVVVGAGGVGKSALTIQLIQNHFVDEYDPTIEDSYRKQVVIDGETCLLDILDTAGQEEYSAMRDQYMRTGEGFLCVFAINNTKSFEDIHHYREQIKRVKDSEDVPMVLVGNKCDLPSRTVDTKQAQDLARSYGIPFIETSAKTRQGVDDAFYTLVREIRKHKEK
Chain of KRAS WT (P62937 whole entry): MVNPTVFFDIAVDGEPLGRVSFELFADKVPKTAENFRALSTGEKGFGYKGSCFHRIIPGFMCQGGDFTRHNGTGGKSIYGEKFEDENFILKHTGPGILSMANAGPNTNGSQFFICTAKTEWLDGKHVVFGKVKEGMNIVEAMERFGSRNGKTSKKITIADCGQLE
Text: as §1, §2, §3, §4

NRAS G12C = biological target: T1, NRAS G12C (Homo sapiens, UniProt P01111+P62937, G12C); assay: Ras-Raf disruption/FRET/MOA assay, NRAS G12C; assay type: biochemical
T1 construct: His6
T1 sequence (P01111 whole entry G12C): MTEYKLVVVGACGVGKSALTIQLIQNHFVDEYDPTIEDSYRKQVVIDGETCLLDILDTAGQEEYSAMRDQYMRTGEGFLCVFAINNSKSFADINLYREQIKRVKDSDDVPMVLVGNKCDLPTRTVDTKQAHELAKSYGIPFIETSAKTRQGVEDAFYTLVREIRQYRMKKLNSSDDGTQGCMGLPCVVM
T1 sequence (P62937 whole entry): as the sequence (P62937 whole entry) above
Text: as §1, §2, §3, §4

KRAS G12D = KRAS G12D (Homo sapiens, UniProt P01116+P62937, G12D); assay: Ras-Raf disruption/FRET/MOA assay, KRAS G12D; assay type: biochemical
Chain of KRAS G12D (P01116 1-169 isoform P01116-2 G12D limits assumed): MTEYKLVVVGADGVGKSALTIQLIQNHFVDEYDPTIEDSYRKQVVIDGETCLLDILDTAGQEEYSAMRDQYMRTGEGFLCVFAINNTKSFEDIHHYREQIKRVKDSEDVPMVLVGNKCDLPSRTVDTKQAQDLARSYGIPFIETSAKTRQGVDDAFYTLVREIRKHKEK
Chain of KRAS G12D (P62937 whole entry): as the sequence (P62937 whole entry) above
Text: as §1, §2, §3, §4

KRAS G12C = KRAS G12C (Homo sapiens, UniProt P01116+P62937, G12C); assay: Ras-Raf disruption/FRET/MOA assay, KRAS G12C; assay type: biochemical
Chain of KRAS G12C (P01116 1-169 isoform P01116-2 G12C limits assumed): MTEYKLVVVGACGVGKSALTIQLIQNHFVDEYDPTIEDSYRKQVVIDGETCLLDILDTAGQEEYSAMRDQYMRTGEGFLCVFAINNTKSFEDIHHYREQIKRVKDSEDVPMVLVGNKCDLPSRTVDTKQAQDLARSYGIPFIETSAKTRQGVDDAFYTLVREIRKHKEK
Chain of KRAS G12C (P62937 whole entry): as the sequence (P62937 whole entry) above
Text: as §1, §2, §3, §4

KRAS G13C = KRAS G13C (Homo sapiens, UniProt P01116+P62937, G13C); assay: Ras-Raf disruption/FRET/MOA assay, KRAS G13C; assay type: biochemical
Chain of KRAS G13C (P01116 1-169 isoform P01116-2 G13C limits assumed): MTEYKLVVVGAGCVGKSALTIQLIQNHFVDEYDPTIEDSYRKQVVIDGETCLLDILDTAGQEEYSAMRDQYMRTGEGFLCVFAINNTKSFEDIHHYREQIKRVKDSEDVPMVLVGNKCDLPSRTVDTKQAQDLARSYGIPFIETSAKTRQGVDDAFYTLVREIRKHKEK
Chain of KRAS G13C (P62937 whole entry): as the sequence (P62937 whole entry) above
Text: as §1, §2, §3, §4

AsPC-1 (K-Ras G12D) [1] = assay: CellTiter-Glo cell viability assay, AsPC-1; assay type: cell-based; conditions: Homo sapiens, ASPC1, 120 h
Method in brief: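 Compounds dispensed directly onto seeded AsPC-1 (K-Ras G12D) or NCI-H358 (K-Ras G12C) cells; CellTiter-Glo luminescence read on day 5 after ~30 min equilibration to room temperature. Signal normalized to DMSO average (%) and fit by four-parameter logistic.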

KRAS G13D = KRAS G13D (Homo sapiens, UniProt P01116+P62937, G13D); assay: Ras-Raf disruption/FRET/MOA assay, KRAS G13D; assay type: biochemical
Chain of KRAS G13D (P01116 1-169 isoform P01116-2 G13D limits assumed): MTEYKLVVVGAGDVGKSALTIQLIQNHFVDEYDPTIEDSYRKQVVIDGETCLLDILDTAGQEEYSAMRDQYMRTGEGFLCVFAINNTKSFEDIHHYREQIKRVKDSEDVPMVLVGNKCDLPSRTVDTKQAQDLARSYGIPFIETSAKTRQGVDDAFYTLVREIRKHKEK
Chain of KRAS G13D (P62937 whole entry): as the sequence (P62937 whole entry) above
Text: as §1, §2, §3, §4

AsPC-1 (K-Ras G12D) [2] = assay: Potency assay: pERK in AsPC-1 cells; assay type: cell-based; conditions: Homo sapiens
KRAS G12S = KRAS G12S (Homo sapiens, UniProt P01116+P62937, G12S); assay: Ras-Raf disruption/FRET/MOA assay, KRAS G12S; assay type: biochemical
Chain of KRAS G12S (P01116 1-169 isoform P01116-2 G12S limits assumed): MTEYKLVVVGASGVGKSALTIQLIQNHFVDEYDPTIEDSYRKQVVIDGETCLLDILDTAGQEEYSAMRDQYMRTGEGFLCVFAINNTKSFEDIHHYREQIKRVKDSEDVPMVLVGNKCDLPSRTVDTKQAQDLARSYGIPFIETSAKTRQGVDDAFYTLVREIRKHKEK
Chain of KRAS G12S (P62937 whole entry): as the sequence (P62937 whole entry) above
Text: as §1, §2, §3, §4

[3] = disruption of BRAF RBD binding, with Cyclophilin A, read-out: KRAS G12V FRET IC50
[4] = disruption of BRAF RBD binding, with Cyclophilin A, read-out: KRAS WT FRET IC50
[5] = NRAS G12C, read-out: NRAS G12C FRET data IC50
[6] = disruption of BRAF RBD binding, with Cyclophilin A, read-out: KRAS G12D FRET IC50
[7] = disruption of BRAF RBD binding, with Cyclophilin A, read-out: KRAS G12C FRET IC50
[8] = disruption of BRAF RBD binding, with Cyclophilin A, read-out: KRAS G13C FRET IC50
[9] = disruption of BRAF RBD binding, with Cyclophilin A, read-out: KRAS G13D FRET IC50
[10] = disruption of BRAF RBD binding, with Cyclophilin A, read-out: KRAS G12S FRET IC50
[11] = AsPC-1, K-Ras G12D, 5-day treatment, read-out: AsPC-1 Cell Viability IC50

Chain of KRAS G12V (P01116 1-169 isoform P01116-2 G12V limits assumed): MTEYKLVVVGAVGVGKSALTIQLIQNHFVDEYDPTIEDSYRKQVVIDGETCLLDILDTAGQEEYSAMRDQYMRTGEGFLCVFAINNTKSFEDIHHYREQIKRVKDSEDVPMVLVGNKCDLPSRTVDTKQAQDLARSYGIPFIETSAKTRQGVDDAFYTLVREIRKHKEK
Chain of KRAS G12V (P62937 whole entry, the tested form may be a part): as the sequence (P62937 whole entry) above

Compound | IC50 (KRAS G12V; [3]) | IC50 (KRAS WT; [4]) | IC50 (NRAS G12C; [5]) | IC50 (KRAS G12D; [6]) | IC50 (KRAS G12C; [7]) | IC50 (KRAS G13C; [8]) | IC50 (KRAS G13D; [9]) | IC50 (KRAS G12S; [10]) | IC50 (AsPC-1 (K-Ras G12D) [1]; [11]) | other results
CCn1c(-c2cnccc2COC)c2c3cc(ccc31)-c1cc(O)cc(c1)C[C@H](NC(=O)[C@H](C(C)C)N(C)C(=O)CN(C)C(=O)[C@@H]1[C@H](C)N1[S@@+]([O-])C(C)(C)C)C(=O)N1CCC[C@H](N1)C(=O)OCC(C)(C)C2 (some centres unmarked) [Compound 54] | 100 to 1000 nM | 10 to 100 nM | 10 to 100 nM | 100 to 1000 nM | 10 to 100 nM | 10 to 100 nM | 100 to 1000 nM | 10 to 100 nM |  | IC50 (AsPC-1 (K-Ras G12D) [1]; read-out: AsPC-1 Cell Viability IC50): 1000 to 10000 nM; EC50 (AsPC-1 (K-Ras G12D) [2]; ASPC1, read-out: pERK EC50 (AsPC-1 KRAS G12D)): < 5000 nM
CCn1c(-c2cccnc2[C@H](C)OC)c2c3cc(ccc31)-c1cc(O)cc(c1)C[C@H](NC(=O)[C@H](C(C)C)N(C)C(=O)[C@@H]1CN(C(=O)[C@H]3CN3)C[C@@H]1C)C(=O)N1CCC[C@H](N1)C(=O)OCC(C)(C)C2 [Compound 88] | 10 to 100 nM | 10 to 100 nM | < 10 nM | 10 to 100 nM | < 10 nM | 10 to 100 nM | 10 to 100 nM | 10 to 100 nM | 100 to 1000 nM | EC50 (AsPC-1 (K-Ras G12D) [2]; ASPC1, AsPC-1 cells, K-Ras G12D, read-out: pERK EC50 (AsPC-1 KRAS G12D)): < 5000 nM
CCn1c(-c2cnccc2COC)c2c3cc(ccc31)-c1cc(O)cc(c1)C[C@H](NC(=O)[C@H](C(C)C)N(C)C(=O)[C@H]1CCN(C(=O)N3C[C@H]3C(=O)OC)C1)C(=O)N1CCC[C@H](N1)C(=O)OCC(C)(C)C2 [Compound 111] | 100 to 1000 nM | 100 to 1000 nM | 100 to 1000 nM | 1000 to 10000 nM | 100 to 1000 nM | 100 to 1000 nM | 100 to 1000 nM | 100 to 1000 nM | > 10000 nM | 
CCn1c(-c2cnccc2COC)c2c3cc(ccc31)-c1cc(O)cc(c1)C[C@H](NC(=O)[C@H](C(C)C)N(C)C(=O)CN(C)C(=O)[C@H]1N[C@H]1c1ccccc1)C(=O)N1CCC[C@H](N1)C(=O)OCC(C)(C)C2 [Compound 116] |  |  |  |  |  |  |  |  |  | IC50 (KRAS G12V): 100 to 1000 nM; IC50 (KRAS WT): 10 to 100 nM; IC50 (NRAS G12C; NRAS G12C FRET data IC50, NRAS G12C): 100 to 1000 nM; IC50 (KRAS G12D): 1000 to 10000 nM; IC50 (KRAS G12C): 100 to 1000 nM; IC50 (KRAS G13C): 100 to 1000 nM; IC50 (AsPC-1 (K-Ras G12D) [1]; read-out: AsPC-1 Cell Viability IC50, AsPC-1, K-Ras G12D, 5-day treatment): > 10000 nM; IC50 (KRAS G13D): 100 to 1000 nM; IC50 (KRAS G12S): 100 to 1000 nM
CCn1c(-c2cccnc2[C@H](C)OC)c2c3cc(ccc31)-c1cccc(c1)C[C@H](NC(=O)[C@H](C(C)C)N1CC[C@H](CN=C=NCCOC)C1)C(=O)N1CCC[C@H](N1)C(=O)OCC(C)(C)C2 [Compound 122] | 1000 to 10000 nM | 1000 to 10000 nM | 100 to 1000 nM | 1000 to 10000 nM | 100 to 1000 nM | 100 to 1000 nM | > 10000 nM | 1000 to 10000 nM | 1000 to 10000 nM | 
CCn1c(-c2cccnc2[C@H](C)OC)c2c3cc(ccc31)-c1cc(O)cc(c1)C[C@H](NC(=O)[C@H](C(C)C)N1CCC3(CCN(C(=O)[C@@H]4CN4)CC3)C1=O)C(=O)N1CCC[C@H](N1)C(=O)OCC(C)(C)C2 [Compound 195] | 100 to 1000 nM | 10 to 100 nM | 10 to 100 nM | 1000 to 10000 nM | 10 to 100 nM | < 10 nM | 10 to 100 nM | 100 to 1000 nM | > 10000 nM | 
CCn1c(-c2cnccc2COC)c2c3cc(ccc31)-c1cc(O)cc(c1)C[C@H](NC(=O)[C@H](C(C)C)N(C)C(=O)CN1C(=O)[C@@H]3[C@H](C1=O)N3Cc1ccccc1)C(=O)N1CCC[C@H](N1)C(=O)OCC(C)(C)C2 (stereo partly drawn) [Example 55, (2S)-2-(2-((1R,5S)-6-benzyl-2,4-dioxo-3,6-diazabicyclo[3.1.0]hexan-3-yl)-N-methylacetamido)-N-((6^3S,4S)-1^1-ethyl-2^5-hydroxy-1^2-(4-(methoxymethyl)pyridin-3-yl)-10,10-dimethyl-5,7-dioxo-6^1,6^2,6^3,6^4,6^5,6^6-hexahydro-1^1H-8-oxa-1(5,3)-indola-6(1,3)-pyridazina-2(1,3)-benzenacycloundecaphane-4-yl)-3-methylbutanamide] | 100 to 1000 nM | 1000 to 10000 nM | 100 to 1000 nM | > 10000 nM | 100 to 1000 nM | 100 to 1000 nM | 1000 to 10000 nM | 100 to 1000 nM | > 10000 nM | 

Source: patent US11739074B2, “Ras inhibitors” (Revolution Medicines, Inc., priority 2019, dated 2023)
